Key:
Type in all cases: in vivo, mouse
CB1R -/- mice = test: Acute oral glucose tolerance test (OGTT) in CB1R KO mice; conditions: 10 mg/kg i.p., OGTT 2 g/kg
Method: In order to evaluate the short-term effects of the rimonabant-like molecules, as well as their selectivity for CB1R, wild-type C57BL/6 mice and CB1R −/− mice underwent an oral glucose tolerance test (OGTT at 2 g/kg) 10 min after i.p. injection of vehicle or of JM-02.003 or JM-00.266 (i.e., compound IA) (10 mg/kg). Blood glucose was measured at times t=0, t=15 min, t=30 min, t=45 min, t=60 min, t=90 min, and t=120 min post-oral. glucose administration using a Contour®TS blood glucose monitor (ref. 81574201, Bayer HealthCare) and reactive strips (ref. 81574274, Bayer HealthCare).

wild-type C57BL/6 mice = test: Plasma insulin during OGTT (ELISA); conditions: 10 mg/kg i.p.
Method: Assay of plasma insulin was carried out using the ALPCO™ Mouse Insulin ELISA Kit (ref. AKRIN-011T, ALPCO Diagnostics) according to the supplier's instructions. Blood samples were collected during an OGTT at t=0, t=30, t=60, t=120 min post-administration of the oral bolus of glucose (2 g/kg).

C57BL/6 mice = test: Gastrointestinal transit (charcoal), anandamide-induced inhibition; conditions: 10 mg/kg i.p. with AEA 10 mg/kg i.p.
Method: Transit through the stomach and the intestine was measured via oral administration of vegetable charcoal suspended in gum arabic used herein as nonabsorbable marker. Briefly, following a short fast, C57BL/6 mice were injected intraperitoneally (i.p.) with anandamide (10 mg/kg) in the presence or absence of the molecule of interest JM-00.266 (i.e., compound IA) (10 mg/kg) before oral charcoal administration. 25 minutes later, the animals were sacrificed by cervical dislocation in order to entirely remove the intestine. The distance between the beginning of the pylorus and the location of the charcoal bolus was measured.

obese C57BL/6 mice [1] = test: Open-field test after 30-day chronic treatment; conditions: end of 30-day treatment, 10 mg/kg i.p.
Method: Locomotor activity of the mice was measured at the conclusion of the chronic treatment with rimonabant or molecule JM-00.266 (i.e., compound IA) by an infrared monitoring system. To that end, the animals were placed individually in 43×43 cm plexiglass boxes (MED associates) for 20 min. Two series of 16 pulsed infrared beams were spaced 2.5 cm apart on opposite walls to record ambulatory X-Y movements at 100 ms resolution. The centre was defined as a central 32×32 cm square. In addition to locomotor activity information, this test makes it possible to predict anxiolytic activity in response to novelty or to an anxiogenic environment. The variables measured in the open field are total ambulatory activity (in cm), the number of entries and the time spent in the central area as well as the distance traversed in the centre divided by the total distance traversed.

obese C57BL/6 mice [2] = test: OGTT before and after 30-day chronic treatment; conditions: obese mice after 30 days of treatment, 10 mg/kg
Method: (§1) In order to evaluate the long-term effects of the treatment on blood glucose control, glucose tolerance (OGTT) and insulin sensitivity (ITT) were evaluated pre- and post-treatment. Thus, for the OGTT the mice were force-fed glucose (2 g/kg), and for the ITT the mice received an i.p. injection of insulin (0.5 IU/kg). In both cases, blood glucose was measured at times t=0, t=15 min, t=30 min, t=45 min, t=60 min, t=90 min, and t=120 min post-glucose ingestion using a Contour®TS blood glucose monitor (ref. 81574201, Bayer HealthCare) and reactive strips (ref. 81574274, Bayer HealthCare).

obese C57BL/6 mice [3] = test: ITT before and after 30-day chronic treatment; conditions: obese mice after 30 days of treatment
Method: as §1

obese C57BL/6 mice [4] = test: Body mass, 43-day oral treatment combined with low-fat diet; conditions: low-fat diet (5% lipids), oral daily, 43 days
From the text: In order to determine the long-term effects of compound of interest JM-00.266 (i.e., compound IA), C57BL/6 mice were made obese by means of a high-fat diet (30% crude fat, 33.5% carbohydrates; ref. E15126-34, SSNIFF, Soest, Germany) for 15 weeks. The mice were then subjected to a low-fat diet (5% lipids; Standard Diet AO4; UAR, Epinay-sur-Orge, France) and received daily, in the middle of the day, an oral dose of JM-00.266 (i.e., compound IA) or of vehicle over a period of 43 days. The weight of the animals was measured every two days from the beginning of the treatment.

obese C57BL/6 mice [5] = test: Glucose tolerance test after 43-day oral treatment with low-fat diet; conditions: 43 days, orally 10 mg/kg once per day
Method: In order to evaluate the long-term effects of the treatment on blood glucose control, glucose tolerance was evaluated at the end of the treatment period. The mice received an intraperitoneal injection of glucose (2 g/kg) then blood glucose was measured at times t=0, t=15 min, t=30 min, t=45 min, t=60 min, t=90 min, and t=120 min post-glucose injection using a My Life Pura blood glucose monitor (Ypsomed, Paris, France).

[6] = Plasma assay of triglycerides; conditions: context of obesity; stated in conclusion only
Method: Total cholesterol, triglycerides and hepatic markers were assayed by a Dimension Vista Intelligent Lab System (Siemens, Saint-Denis, France) using suitable reagents.

[7] = system: liver, subcutaneous and visceral adipose tissue of obese mice; test: Gene expression of markers (RT-PCR) in liver and adipose tissues after oral treatment with food

CSc1ccc(C2C(N3C(=O)c4ccccc4C3=O)C(=O)N2c2ccc(SC)cc2)cc1 (stereo not drawn) [JM-00.266, trans-1,4-di-(4-methylthiophenyl)-3-N-phthaloyl-azetidine-2-one]
improvement in glucose tolerance in CB1R KO mice (CB1R -/- mice): abolished | blood insulin at t=30 min (wild-type C57BL/6 mice; versus vehicle): lower | insulin production induced by glucose administration (wild-type C57BL/6 mice; wild-type mice): not stimulated | effect on AEA-induced inhibition of gastrointestinal transit (C57BL/6 mice): completely abolishes the effect of the agonist and normalizes gastrointestinal transit | motor activity (obese C57BL/6 mice [1]): no effect | time spent in the centre of the arena / anxiety state (obese C57BL/6 mice [1]): not altered | basal blood glucose (obese C57BL/6 mice [2]): significant improvement | glucose tolerance (OGTT 2 g/kg) (obese C57BL/6 mice [2]): significant improvement | reduction in blood glucose induced by insulin injection, compared with SR141716 (obese C57BL/6 mice [3]): more marked | insulin resistance (ITT) (obese C57BL/6 mice [3]; 10 mg/kg): improved | body mass / weight loss versus vehicle + low-fat diet (obese C57BL/6 mice [4]): decreases significantly more | glucose tolerance versus VEH+LF and VEH+HF (obese C57BL/6 mice [5]): better glucose tolerance | blood triglycerides [6]: decreasing blood triglycerides | G6P expression [7]: reduction | GLUT4 expression [7]: reduction
